Test results reported in ChEMBL document CHEMBL4673265, “The food-grade antimicrobial xanthorrhizol targets the enoyl-ACP reductase (FabI) in Escherichia coli” (Bioorg Med Chem Lett, 2020).
Changes are numbered by the printed parent chain. Values after ≈ are worked out from the molar mass of the structure shown. Active and inactive are the calls of the source. No cut-off for these calls is given here.

Key:
Escherichia coli [1] = test: Antimicrobial activity against Escherichia coli W3110 imp4213 assessed as absence of growth; assay type: functional
Escherichia coli [2] = test: Antimicrobial activity against Escherichia coli W3110 imp4213 expressing pCA24N-fab/ Y156V mutant assessed as absence of growth; assay type: functional
Escherichia coli [3] = test: Antibacterial activity against Escherichia coli BW25113 assessed as effect on growth rate per hour at 0.128 uM incubated for 24 hrs by microplate reader; assay type: functional
Escherichia coli [4] = test: Antimicrobial activity against Escherichia coli W3110 imp4213 expressing pCA24N-fab F204V mutant assessed as absence of growth; assay type: functional
Escherichia coli [5] = test: Antimicrobial activity against Escherichia coli W3110 imp4213 expressing pCA24N mutant assessed as absence of growth; assay type: functional
Escherichia coli [6] = test: Antimicrobial activity against Escherichia coli W3110 imp4213 expressing fabI G93V mutant assessed as absence of growth; assay type: functional
Escherichia coli [7] = test: Antimicrobial activity against Escherichia coli W3110 imp4213 expressing fabI392 mutant assessed as absence of growth; assay type: functional
Escherichia coli [8] = test: Antimicrobial activity against Escherichia coli W3110 imp4213 expressing pCA24N-fabI mutant assessed as absence of growth; assay type: functional
Escherichia coli [9] = test: Antimicrobial activity against Escherichia coli W3110 imp4213 expressing pCA24N-fab F203L mutant assessed as absence of growth; assay type: functional
Staphylococcus aureus = test: Antimicrobial activity against Staphylococcus aureus assessed as complete inhibition of growth after 24 hrs by broth microdilution method; assay type: functional
[10] = Inhibition of Staphylococcus aureus FabI assessed as incorporation of [1-14C]acetate to L-[U-14C]leucine
[11] = molecular target: T1, Enoyl-[acyl-carrier-protein] reductase [NADH] FabI (Escherichia coli K-12, UniProt P0AEK4); test: Inhibition of Escherichia coli FabI using trans-2-[…]-N-acetylcysteamine as substrate by spectrophotometry
T1 sequence (P0AEK4 whole entry): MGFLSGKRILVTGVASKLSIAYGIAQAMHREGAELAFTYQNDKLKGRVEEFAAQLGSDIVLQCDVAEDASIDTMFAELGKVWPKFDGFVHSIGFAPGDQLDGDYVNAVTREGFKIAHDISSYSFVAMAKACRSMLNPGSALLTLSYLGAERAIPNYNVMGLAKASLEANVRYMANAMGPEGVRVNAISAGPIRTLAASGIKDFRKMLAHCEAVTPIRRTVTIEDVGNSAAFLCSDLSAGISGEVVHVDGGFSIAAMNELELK

[12] = Drug uptake in Escherichia coli W3110 imp4213 mutant at 8 ug/ml incubated for 2 hrs (Rvb (wash control) = 1.48 +/- 1.31 pM); assay type: ADME; conditions: dose 8 µg/ml
[13] = test system: T2, Enoyl-[acyl-carrier-protein] reductase [NADH] FabI (Escherichia coli K-12), P0AEK4 [Y156V]; test: Binding affinity to Escherichia coli FabI Y156V mutant assessed as binding free energy
T2 sequence (whole entry): T1 sequence (P0AEK4 whole entry) with Y156V

Escherichia coli [14] = test: Antimicrobial activity against wild type Escherichia coli W3110 assessed as absence of growth; assay type: functional
[15] = test system: T3, Enoyl-[acyl-carrier-protein] reductase [NADH] FabI (Escherichia coli K-12), P0AEK4 [G93V]; test: Binding affinity to Escherichia coli FabI G93V mutant assessed as change in entropy
T3 sequence (whole entry): T1 sequence (P0AEK4 whole entry) with G93V

Escherichia coli [16] = test: Antimicrobial activity against Escherichia coli W3110 imp4213 expressing fabI392 pCA24N fabI mutant assessed as absence of growth; assay type: functional
[17] = molecular target: Enoyl-[acyl-carrier-protein] reductase [NADH] FabI (Escherichia coli K-12, UniProt P0AEK4, G93V); test: Inhibition of Escherichia coli FabI G93V mutant
Escherichia coli [18] = test: Antimicrobial activity against Escherichia coli W3110 imp4213 expressing fabI392 pCA24N fabI F203L mutant assessed as absence of growth; assay type: functional
[19] = molecular target: Enoyl-[acyl-carrier-protein] reductase [NADH] FabI (Escherichia coli K-12, UniProt P0AEK4, Y156V); test: Inhibition of Escherichia coli FabI Y156V mutant
Chain of Enoyl-[acyl-carrier-protein] reductase [NADH] FabI (Escherichia coli K-12, UniProt P0AEK4, Y156V) (P0AEK4 2-262 Y156V limits assumed): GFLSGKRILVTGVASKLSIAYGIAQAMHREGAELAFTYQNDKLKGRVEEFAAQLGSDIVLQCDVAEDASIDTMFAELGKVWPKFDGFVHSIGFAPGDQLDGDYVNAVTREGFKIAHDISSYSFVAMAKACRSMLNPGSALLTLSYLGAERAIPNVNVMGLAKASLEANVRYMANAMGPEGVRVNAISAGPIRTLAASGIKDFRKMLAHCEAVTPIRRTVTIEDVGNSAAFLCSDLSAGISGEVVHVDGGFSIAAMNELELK

Escherichia coli [20] = test: Antimicrobial activity against Escherichia coli W3110 imp4213 expressing fabI392 pCA24N mutant assessed as absence of growth; assay type: functional
Escherichia coli [21] = test: Antimicrobial activity against Escherichia coli W3110 imp4213 expressing fabI392 pCA24N fabI Y156V mutant assessed as absence of growth; assay type: functional
[22] = molecular target: T4, Enoyl-[acyl-carrier-protein] reductase [NADH] FabI (Escherichia coli K-12) (UniProt P0AEK4); test: Binding affinity to wild type Escherichia coli FabI assessed as change in entropy
T4 sequence (whole entry): T1 sequence (P0AEK4 whole entry)

[23] = molecular target: T5, Enoyl-acyl-carrier protein reductase (Plasmodium falciparum) (UniProt Q965D5); test: Binding affinity to Plasmodium falciparum FabI assessed as fluorescence quenching by fluorescence spectral analysis
T5 sequence (whole entry): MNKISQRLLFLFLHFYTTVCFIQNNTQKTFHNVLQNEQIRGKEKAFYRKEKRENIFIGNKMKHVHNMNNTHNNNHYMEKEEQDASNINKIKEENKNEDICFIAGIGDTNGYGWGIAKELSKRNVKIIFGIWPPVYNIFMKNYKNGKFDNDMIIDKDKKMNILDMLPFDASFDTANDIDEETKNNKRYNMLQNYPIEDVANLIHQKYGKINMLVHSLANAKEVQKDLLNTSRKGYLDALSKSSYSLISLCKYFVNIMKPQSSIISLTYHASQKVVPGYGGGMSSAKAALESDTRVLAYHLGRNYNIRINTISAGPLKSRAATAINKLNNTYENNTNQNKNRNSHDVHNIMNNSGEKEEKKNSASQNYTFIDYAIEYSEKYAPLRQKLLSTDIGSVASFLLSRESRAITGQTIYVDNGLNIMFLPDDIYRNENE

[24] = molecular target: Enoyl-[acyl-carrier-protein] reductase [NADH] FabI (Escherichia coli K-12, UniProt P0AEK4, F203V); test: Inhibition of Escherichia coli FabI F203V mutant
Chain of Enoyl-[acyl-carrier-protein] reductase [NADH] FabI (Escherichia coli K-12, UniProt P0AEK4, F203V) (P0AEK4 2-262 F203V limits assumed): as the sequence (P0AEK4 2-262 Y156V limits assumed) above, with V155Y, F202V counted along it

[25] = molecular target: Enoyl-[acyl-carrier-protein] reductase [NADH] FabI (Escherichia coli K-12, UniProt P0AEK4, F203L); test: Inhibition of Escherichia coli FabI F203L mutant
Chain of Enoyl-[acyl-carrier-protein] reductase [NADH] FabI (Escherichia coli K-12, UniProt P0AEK4, F203L) (P0AEK4 2-262 F203L limits assumed): as the sequence (P0AEK4 2-262 Y156V limits assumed) above, with V155Y, F202L counted along it

Escherichia coli [26] = test: Antibacterial activity against Escherichia coli BW25113 assessed as effect on growth rate per hour at 8 uM incubated for 24 hrs by microplate reader; assay type: functional
[27] = test system: T3, Enoyl-[acyl-carrier-protein] reductase [NADH] FabI (Escherichia coli K-12), P0AEK4 [G93V]; test: Binding affinity to Escherichia coli FabI G93V mutant assessed as binding free energy
[28] = molecular target: T1, Enoyl-[acyl-carrier-protein] reductase [NADH] FabI; test: Inhibition of Wild type Escherichia coli FabI
Escherichia coli [29] = test: Ratio of MIC for antimicrobial activity against Escherichia coli W3110 imp4213 expressing fabI392 pCA24N fabI F203L mutant assessed as absence of growth to MIC for antimicrobial activity against Escherichia coli W3110 imp4213 expressing fabI392 mutant assessed as absence of growth; assay type: functional
Plasmodium falciparum = test: Binding affinity to Plasmodium falciparum FabI Y156V mutant assessed as fluorescence quenching by fluorescence spectral analysis
Escherichia coli [30] = test: Antimicrobial activity against triclosan resistance-induced Escherichia coli W3110 assessed as absence of growth; assay type: functional
Escherichia coli [31] = test: Antimicrobial activity against Escherichia coli W3110 imp4213 expressing fabI392 pCA24N fabI F204V mutant assessed as absence of growth; assay type: functional
[32] = molecular target: T4, Enoyl-[acyl-carrier-protein] reductase [NADH] FabI (Escherichia coli K-12); test: Binding affinity to wild type Escherichia coli FabI assessed as binding free energy
[33] = Drug uptake in Escherichia coli W3110 at 8 ug/ml incubated for 2 hrs (Rvb (wash control) = 1.88 pM); assay type: ADME; conditions: dose 8 µg/ml
[34] = test system: T2, Enoyl-[acyl-carrier-protein] reductase [NADH] FabI (Escherichia coli K-12), P0AEK4 [Y156V]; test: Binding affinity to Escherichia coli FabI Y156V mutant assessed as change in entropy
Escherichia coli [35] = test: Ratio of MIC for antimicrobial activity against Escherichia coli W3110 imp4213 expressing fabI392 pCA24N fabI F204V mutant assessed as absence of growth to MIC for antimicrobial activity against Escherichia coli W3110 imp4213 expressing fabI392 mutant assessed as absence of growth; assay type: functional
[36] = test system: Mycobacterium tuberculosis; test: Antibacterial activity against Mycobacterium tuberculosis H37Rv ATCC 27294 incubated for 7 days by microplate alamar blue assay; assay type: functional; conditions: 168 h, time 7 day
Escherichia coli [37] = test: Antimicrobial activity against Escherichia coli ATCC 35218; assay type: functional

SMILES: Oc1cc(Cl)ccc1Oc1ccc(Cl)cc1Cl [TRICLOSAN]
- MIC (Escherichia coli [1]): 0.02 µg/mL (≈ 0.0691 µM)
- MIC (Escherichia coli [2]): 2.05 µg/mL (≈ 7.07 µM)
- Activity (Escherichia coli [3]): 0.4
- MIC (Escherichia coli [4]): 2.05 µg/mL (≈ 7.07 µM)
- MIC (Escherichia coli [5]): 0.02 µg/mL (≈ 0.0691 µM)
- MIC (Escherichia coli [6]): > 1.28 µg/mL
- MIC (Escherichia coli [7]): 0.002 µg/mL (≈ 0.00691 µM)
- MIC (Escherichia coli [8]): 0.512 µg/mL (≈ 1.77 µM)
- MIC (Escherichia coli [9]): > 2.05 µg/mL

SMILES: CC(=O)c1cc2c(=O)c3c(C(=O)O)c(O)c(O)cc3oc2c(C(C)=O)c1-c1coc2cc(O)c(O)c(C(=O)O)c2c1=O [VINAXANTHONE]
- MIC (Staphylococcus aureus): 32 µg/mL (≈ 55.5 µM)
- IC50 [10]: 0.9 µM

SMILES: O=C(O[C@@H]1Cc2c(O)cc(O)cc2O[C@@H]1c1cc(O)c(O)c(O)c1)c1cc(O)c(O)c(O)c1 [EPIGALOCATECHIN GALLATE]
- IC50 [11]: 5 µM

SMILES: CC(C)=CCC[C@@H](C)c1ccc(C)c(O)c1 [XANTHORRIZOL]
- Drug uptake [12]: 76.65 pM
- deltaG [13]: -10.6 kcal/mol
- MIC (Escherichia coli [14]): 0.05 µg/mL (≈ 0.229 µM)
- -TdeltaS [15]: -38.7 kcal/mol
- MIC (Escherichia coli [16]): 8 µg/mL (≈ 36.6 µM)
- IC50 [17]: 19.7 µM
- MIC (Escherichia coli [18]): 16 µg/mL (≈ 73.3 µM)
- IC50 [19]: 37.7 µM
- MIC (Escherichia coli [20]): 2 µg/mL (≈ 9.16 µM)
- MIC (Escherichia coli [1]): 16 µg/mL (≈ 73.3 µM)
- MIC (Escherichia coli [21]): 16 µg/mL (≈ 73.3 µM)
- MIC (Escherichia coli [2]): 128 µg/mL (≈ 586 µM)
- -TdeltaS [22]: -32.2 kcal/mol
- Activity [23]: inactive
- IC50 [24]: 57.3 µM
- IC50 [25]: 75.7 µM
- MIC (Escherichia coli [4]): 256 µg/mL (≈ 1170 µM)
- Activity (Escherichia coli [26]): 0.354
- MIC (Escherichia coli [5]): 16 µg/mL (≈ 73.3 µM)
- deltaG [27]: -15.1 kcal/mol
- IC50 [28]: 17.1 µM
- MIC (Escherichia coli [6]): 16 µg/mL (≈ 73.3 µM)
- Ratio (Escherichia coli [29]): 2
- MIC (Escherichia coli [7]): 2 µg/mL (≈ 9.16 µM)
- Activity (Plasmodium falciparum): inactive
- MIC (Escherichia coli [8]): 64 µg/mL (≈ 293 µM)
- MIC (Escherichia coli [30]): 0.125 µg/mL (≈ 0.573 µM)
- MIC (Escherichia coli [9]): 256 µg/mL (≈ 1170 µM)
- MIC (Escherichia coli [31]): 16 µg/mL (≈ 73.3 µM)
- deltaG [32]: -15 kcal/mol
- Drug uptake [33]: 0.23 pM
- -TdeltaS [34]: -33.2 kcal/mol
- Ratio (Escherichia coli [35]): 2

SMILES: C=C1C(=O)OCC1C/C=C(\C)CC(=O)C=C(C)C (configuration not stated) [ANTHECOTULIDE]
- MIC [36]: 20.2 µg/mL (≈ 81.3 µM)
- MIC (Escherichia coli [37]): 25 µg/mL (≈ 101 µM)
